Source: article doi:10.1101/2023.12.19.572336, “Structure of an insect gustatory receptor” (bioRxiv, 2023)

Target: T1, Bombyx mori Gr9 (BmGr9) (Bombyx mori, UniProt B3GTD7)
T1 construct: N-terminally TwinStrep-tagged BmGr9, homotetramer; residues 232–269 and the N and C termini (15 and 5 residues) disordered
T1 sequence (B3GTD7 1-449): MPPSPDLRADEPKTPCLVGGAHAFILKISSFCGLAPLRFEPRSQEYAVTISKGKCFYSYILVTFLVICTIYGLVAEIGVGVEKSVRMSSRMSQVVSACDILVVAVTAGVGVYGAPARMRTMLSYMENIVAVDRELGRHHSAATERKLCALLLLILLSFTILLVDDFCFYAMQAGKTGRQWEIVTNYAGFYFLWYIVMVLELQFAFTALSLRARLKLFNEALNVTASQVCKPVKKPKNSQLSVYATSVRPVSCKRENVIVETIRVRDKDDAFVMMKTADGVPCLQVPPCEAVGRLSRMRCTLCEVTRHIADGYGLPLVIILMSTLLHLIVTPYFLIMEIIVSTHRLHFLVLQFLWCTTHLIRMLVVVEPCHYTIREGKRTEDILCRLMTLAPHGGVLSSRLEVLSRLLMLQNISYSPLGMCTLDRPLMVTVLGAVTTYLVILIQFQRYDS
Assay: cryo-EM of protein purified with […] D-fructose ([…] Å); EC50 by two-electrode voltage clamp in Xenopus oocytes
Assay type: cell-based

## OCC1(O)OC[C@@H](O)[C@@H](O)[C@@H]1O (stereo partly drawn) [D-fructose]
  EC50: 22 mM
